This note sets out measurements from patent US9096584B2, “Compounds useful as inhibitors of ATR kinase” (Vertex Pharmaceuticals Incorporated, priority 2010, dated 2015).

For one assay, the target named is T1, full-length ATR (Homo sapiens, UniProt Q13535).
T1 construct: Assays were carried out at 25° C. in the presence of 5 nM full-length ATR
Briefly: ATR Inhibition Assay (radioactive-phosphate incorporation). It is filed as biochemical. Here is the method: Compounds were screened for their ability to inhibit ATR kinase using a radioactive-phosphate incorporation assay. Assays were carried out in a mixture of 50 mM Tris/HCl (pH 7.5), 10 mM MgCl2 and 1 mM DTT. Final substrate concentrations were 10 μM [γ-33P]ATP (3mCi 33P ATP/mmol ATP, Perkin Elmer) and 800 μM target peptide ([…] (SEQ ID NO: 1)).
Assays were carried out at 25° C. in the presence of 5 nM full-length ATR. An assay stock buffer solution was prepared containing all of the reagents listed above, with the exception of ATP and the test compound of interest. 13.5 μL of the stock solution was placed in a 96 well plate followed by addition of 2 μL of DMSO stock containing serial dilutions of the test compound (typically starting from a final concentration of 15 μM with 3-fold serial dilutions) in duplicate (final DMSO concentration 7%). The plate was pre-incubated for 10 minutes at 25° C. and the reaction initiated by addition of 15 μL [γ-33P]ATP (final concentration 10 μM).
The reaction was stopped after […] by the addition of 30 μL 0.1M phosphoric acid containing 2 mM ATP. A multiscreen phosphocellulose filter 96-well plate (Millipore, Cat no. MAPHN0B50) was pretreated with 100 μL 0.2M phosphoric acid prior to the addition of 45 μL of the stopped assay mixture. The plate was washed with 5×200 μL 0.2M phosphoric acid. After drying, 100 μL Optiphase ‘SuperMix’ liquid scintillation cocktail (Perkin Elmer) was added to the well prior to scintillation counting (1450 Microbeta Liquid Scintillation Counter, Wallac).
After removing mean background values for all of the data points, Ki(app) data were calculated from non-linear regression analysis of the initial rate data using the Prism software package (GraphPad Prism version 3.0cx for Macintosh, GraphPad Software, San Diego Calif., USA).
Below is a chart showing the ATR Inhibition Ki values of compounds of the disclosure.

Assay [1] concerns HCT116 colorectal cancer cells. Briefly: Cisplatin Sensitization Assay (96 h cell viability MTS). It is filed as cell-based. The note with it: concentration of compound required to reduce the IC50 of Cisplatin alone by at least 3-fold, 96 h MTS. Here is the method:
Compounds can be screened for their ability to sensitize HCT116 colorectal cancer cells to Cisplatin using a 96 h cell viability (MTS) assay. […] Compounds and Cisplatin are then both added simultaneously to the cell media in 2-fold serial dilutions from a top final concentration of 10 μM as a full matrix of concentrations in a final cell volume of 200 μl, and the cells are then incubated at 37° C. in 5% CO2. After 96 h, 40 μl of MTS reagent (Promega G358a) is added to each well and the cells are incubated for 1 h at 37° C. in 5% CO2.

T1 sequence (Q13535 whole entry): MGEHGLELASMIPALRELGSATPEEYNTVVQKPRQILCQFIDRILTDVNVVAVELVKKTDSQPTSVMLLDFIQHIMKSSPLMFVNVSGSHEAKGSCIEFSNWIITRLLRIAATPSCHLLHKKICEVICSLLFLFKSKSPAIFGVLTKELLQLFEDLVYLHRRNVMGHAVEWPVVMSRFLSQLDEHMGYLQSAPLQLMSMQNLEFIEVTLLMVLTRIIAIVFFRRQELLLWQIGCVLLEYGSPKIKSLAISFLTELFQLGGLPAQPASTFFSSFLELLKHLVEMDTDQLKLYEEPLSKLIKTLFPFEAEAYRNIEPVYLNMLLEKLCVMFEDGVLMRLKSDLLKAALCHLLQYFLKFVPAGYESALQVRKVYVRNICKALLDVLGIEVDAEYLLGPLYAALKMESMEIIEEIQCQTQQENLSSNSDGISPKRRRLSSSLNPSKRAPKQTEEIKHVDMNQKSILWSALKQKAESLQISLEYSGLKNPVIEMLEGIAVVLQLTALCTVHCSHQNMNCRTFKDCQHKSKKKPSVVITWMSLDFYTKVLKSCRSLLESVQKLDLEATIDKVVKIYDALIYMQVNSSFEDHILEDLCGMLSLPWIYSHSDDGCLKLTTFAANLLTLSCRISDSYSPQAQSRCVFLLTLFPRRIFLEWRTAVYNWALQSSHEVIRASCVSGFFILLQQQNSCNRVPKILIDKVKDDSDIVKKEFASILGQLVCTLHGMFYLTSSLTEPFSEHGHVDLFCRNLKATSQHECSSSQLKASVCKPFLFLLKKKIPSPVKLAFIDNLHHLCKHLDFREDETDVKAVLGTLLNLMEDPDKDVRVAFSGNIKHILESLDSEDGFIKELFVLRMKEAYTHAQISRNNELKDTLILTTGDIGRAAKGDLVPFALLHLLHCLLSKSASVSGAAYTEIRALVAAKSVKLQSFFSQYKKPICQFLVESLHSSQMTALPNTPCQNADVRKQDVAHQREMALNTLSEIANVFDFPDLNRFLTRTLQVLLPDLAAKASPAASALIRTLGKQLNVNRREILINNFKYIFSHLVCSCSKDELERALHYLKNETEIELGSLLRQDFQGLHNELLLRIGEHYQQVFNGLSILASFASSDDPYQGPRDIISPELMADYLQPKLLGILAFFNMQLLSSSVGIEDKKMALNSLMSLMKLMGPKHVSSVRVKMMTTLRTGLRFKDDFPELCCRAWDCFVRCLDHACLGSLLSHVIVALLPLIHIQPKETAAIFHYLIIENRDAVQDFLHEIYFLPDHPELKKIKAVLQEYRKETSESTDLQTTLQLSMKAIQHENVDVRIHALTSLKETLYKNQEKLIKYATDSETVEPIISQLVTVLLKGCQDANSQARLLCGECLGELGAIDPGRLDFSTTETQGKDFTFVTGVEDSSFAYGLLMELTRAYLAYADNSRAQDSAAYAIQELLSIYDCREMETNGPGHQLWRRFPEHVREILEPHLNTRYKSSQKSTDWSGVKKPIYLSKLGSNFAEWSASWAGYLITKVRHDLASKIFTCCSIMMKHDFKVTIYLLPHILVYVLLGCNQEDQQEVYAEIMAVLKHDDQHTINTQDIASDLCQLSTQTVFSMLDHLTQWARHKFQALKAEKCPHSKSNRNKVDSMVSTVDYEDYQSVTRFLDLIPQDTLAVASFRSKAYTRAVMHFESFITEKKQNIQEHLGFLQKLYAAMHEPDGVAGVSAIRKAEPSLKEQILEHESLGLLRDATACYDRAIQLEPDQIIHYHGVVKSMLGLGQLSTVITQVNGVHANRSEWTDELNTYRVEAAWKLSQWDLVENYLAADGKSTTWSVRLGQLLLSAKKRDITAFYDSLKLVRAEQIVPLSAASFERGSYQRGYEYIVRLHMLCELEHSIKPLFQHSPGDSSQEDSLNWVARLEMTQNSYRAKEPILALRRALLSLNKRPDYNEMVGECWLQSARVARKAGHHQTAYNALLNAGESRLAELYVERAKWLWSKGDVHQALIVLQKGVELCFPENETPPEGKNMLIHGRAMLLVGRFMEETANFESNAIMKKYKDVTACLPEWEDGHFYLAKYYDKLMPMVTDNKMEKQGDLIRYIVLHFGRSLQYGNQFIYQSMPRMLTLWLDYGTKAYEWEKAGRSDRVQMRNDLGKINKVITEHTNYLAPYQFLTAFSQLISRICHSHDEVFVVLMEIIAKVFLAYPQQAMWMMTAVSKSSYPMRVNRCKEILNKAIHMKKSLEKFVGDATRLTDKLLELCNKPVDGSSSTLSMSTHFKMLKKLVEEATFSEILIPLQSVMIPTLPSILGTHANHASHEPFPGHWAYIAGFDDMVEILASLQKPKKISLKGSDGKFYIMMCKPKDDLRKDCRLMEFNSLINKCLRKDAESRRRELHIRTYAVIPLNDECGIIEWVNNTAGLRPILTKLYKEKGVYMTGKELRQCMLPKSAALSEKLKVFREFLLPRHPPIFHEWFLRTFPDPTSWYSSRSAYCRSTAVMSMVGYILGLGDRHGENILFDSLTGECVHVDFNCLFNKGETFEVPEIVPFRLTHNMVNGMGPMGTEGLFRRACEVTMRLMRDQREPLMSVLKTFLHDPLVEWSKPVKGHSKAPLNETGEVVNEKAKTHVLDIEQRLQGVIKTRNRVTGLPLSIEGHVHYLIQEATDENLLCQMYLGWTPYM

For the compound `CNCc1ccc(-c2nnc(-c3cc(-c4cnc(S(=O)(=O)C(C)C)cn4)cnc3N)o2)cc1` [III-5, 5-(5-Isopropylsulfonylpyrazin-2-yl)-3-[5-[4-(methylaminomethyl)phenyl]-1,3,4-oxadiazol-2-yl]pyridin-2-amine], the inhibition constant Ki at full-length ATR is no more than 10 nM. As for `CNCc1ccc(-c2nnc(-c3cc(-c4ccc(S(=O)(=O)C(C)C)cn4)cnc3N)o2)cc1` [III-10, 5-(5-Isopropylsulfonyl-2-pyridyl)-3-[5-[4-(methylaminomethyl)phenyl]-1,3,4-oxadiazol-2-yl]pyridin-2-amine], the “CP3 Shift” value in assay [1] was “.078 µM”. Besides, at full-length ATR, the Ki is no more than 10 nM. On to `CNCc1ccc(-c2nnc(-c3cc(-c4ccc(S(=O)(=O)[C@@H]5CCOC5)cc4)cnc3N)o2)cc1` [III-1, 3-[5-[4-(Methylaminomethyl)phenyl]-1,3,4-oxadiazol-2-yl]-5-[4-[(3R)-tetrahydrofuran-3-yl]sulfonylphenyl]pyridin-2-amine], for which the inhibition constant (Ki) on full-length ATR is no more than 10 nM. Still for that read-out and setting: as for `CCS(=O)(=O)N1CC=C(c2cnc(N)c(-c3nnc(-c4ccccc4)o3)c2)CC1` [III-4, 5-(1-Ethylsulfonyl-3,6-dihydro-2H-pyridin-4-yl)-3-(5-phenyl-1,3,4-oxadiazol-2-yl)pyridin-2-amine], the figure is 10 to 100 nM. Turning to `CNCc1ccc(-c2cc(-c3cc(-c4ccc(S(=O)(=O)C(C)C)cn4)cnc3N)on2)cc1` [III-12, 5-(5-Isopropylsulfonyl-2-pyridyl)-3-[3-[4-(methylaminomethyl)phenyl]isoxazol-5-yl]pyridin-2-amine], the “CP3 Shift” value in assay [1] was “.156 µM”. Moreover, on full-length ATR, the inhibitory constant (Ki) is no more than 10 nM. As for `CNCc1ccc(-c2nnc(-c3cc(-c4ccsc4)cnc3N)o2)cc1` [III-9, 3-[5-[4-(Methylaminomethyl)phenyl]-1,3,4-oxadiazol-2-yl]-5-(3-thienyl)pyridin-2-amine], the Ki on full-length ATR is 10 to 100 nM. In the case of `CNCc1ccc(-c2cc(-c3cc(-c4ccc(S(=O)(=O)C(C)C)cn4)cnc3N)on2)c(F)c1` [III-8, 3-[3-[2-Fluoro-4-(methylaminomethyl)phenyl]isoxazol-5-yl]-5-(5-isopropylsulfonyl-2-pyridyl)pyridin-2-amine], the “CP3 Shift” value in assay [1] is “.234 µM”. For the same compound, the Ki on full-length ATR is no more than 10 nM. Turning to `Nc1ncc(-c2ccc(C(=O)N3CCCNCC3)cc2)cc1-c1nnc(-c2ccccc2)o1` [III-2, [4-[6-Amino-5-(5-phenyl-1,3,4-oxadiazol-2-yl)-3-pyridyl]phenyl]-(1,4-diazepan-1-yl)methanone], the Ki on full-length ATR lay within 10 to 100 nM. On the same count and under the same terms, as for `Nc1ncc(-c2cccnc2)cc1C(=O)Nc1ccccc1` [III-7, 2-Amino-N-phenyl-5-(3-pyridyl)pyridine-3-carboxamide], the figure is 100 to 5000 nM; as for `Cc1ccc(-c2cc(-c3cc(-c4ccc(S(=O)(=O)C(C)C)cn4)cnc3N)on2)cc1` [III-6, 5-(5-Isopropylsulfonyl-2-pyridyl)-3-[3-(p-tolyl)isoxazol-5-yl]pyridin-2-amine], 10 to 100 nM.

On to `CNCc1ccc(-c2nnc(-c3cc(-c4ccc(S(=O)(=O)C(C)C)cc4)cnc3N)o2)cc1` [III-11, 5-(4-Isopropylsulfonylphenyl)-3-[5-[4-(methylaminomethyl)phenyl]-1,3,4-oxadiazol-2-yl]pyridin-2-amine], for which the “CP3 Shift” value in assay [1] was “.156 µM”. Further, the inhibition constant Ki on full-length ATR is no more than 10 nM. Consider `CS(=O)(=O)c1ccc(-c2cnc(N)c(-c3nnc(-c4ccccc4)o3)c2)cc1` [III-3, 5-(4-(Methylsulfonyl)phenyl)-3-(5-phenyl-1,3,4-oxadiazol-2-yl)pyridin-2-amine], for which, on full-length ATR, the Ki was in the range of 10 to 100 nM.

One may read the Ki as a measure of affinity in units of concentration, obtained from inhibition or displacement.
